Assay results from US6608103B2, “Inhibitor for neovasculation, cell multiplication, lumen formation and FGF” (Fuji Chemical Industry Co., Ltd., priority 2001, dated 2003).
“Also recorded” adds a separate entry of the source.

Columns and labels:
BAEC [1] = assay: Effects of tocotrienols on multiplication of BAEC, MTT assay; format: cell-based, bovine; details: for Absorbance: MTT, sample 10 μM
Protocol: Normal bovine aortic endothelial cells (BAEC) were manufactured by Cell Systems Co., and purchased through Dainippon Seiyaku Co., Ltd.
A cell suspension was prepared by adding the cells to MEM (Sigma Chemical Co.) containing 10 v/v (%) fetal bovine serum (FBS), 20 IU/ml penicillin and 20 IU/ml streptomycin (MEM+10% FBS) in a concentration of 1×10^5 cells/ml, and cultured in a 5% CO2 incubator at 37° C. by using a 60 mm dish coated with type I collagen with subculturing every 2 to 3 days.
Each of the above samples was added to MEM containing 2% (v/v) FBS, 20 IU/ml penicillin and 20 IU/ml streptomycin (MEM+2% FBS), and subjected to testing.
Effects of tocotrienols on the multiplication of BAEC were examined by using MTT assay.
(§1) Each one microplate was taken out after 0, 24, 48 or 96 hours from placing the culture medium containing a sample. In the case of the microplate taken out after 96 hours, the culture medium was once changed after 48 hours. 3 mg/ml MTT solution PBS (−) was put in each well in an amount of 50 μl/well, and incubated for 3 hours in a CO2 incubator. After filling each well with phosphate buffered saline (PBS(−)), liquid in each well was evacuated, and isopropyl alcohol containing 0.04 mol/l HCL was put in each well in an amount of 200 μl/well. The microplates were allowed to stand overnight in a dark place, and then, absorbance at 595 nm and 655 nm (dual) was measured by a microplate reader.
In the case of Control group A, no sample was added.

BAEC [2] = assay: Inhibitory action against FGF activity, MTT assay on BAEC with FGF 20 ng/ml; format: cell-based, bovine; set-up: key to Cell Multiplication: ↑: Accelerated; /: Tendency to increase; No change; ↓: Inhibited; ↓↓: Strongly inhibited; details: for Absorbance: MTT, FGF 20 ng/ml + sample 10 μM
Protocol: The fibroblast growth factor sample was prepared by dissolving a commercial FGF (Sigma Chemical Co.) in MEM (Sigma Chemical Co.)
as §1
In the case of Control group B, no sample was added.

BAEC [3] = assay: Neovasculation / lumen formation of BAEC between two layers of type I collagen gel; format: cell-based, bovine
Protocol: BAEC was cultured between two layers of type I collagen gel, and a lumen-like netting structure formed therebetween was evaluated.
(§2) Eight parts by volume of “Vitrogen Collagen” (Collagen Co.), 1 part by volume of 0.1 N NaOH and 1 part by volume of ×10 MEM (GIBCO BRL) were placed in a tube, and mixed quickly in an ice bath. The culture solution was removed by suction, and 0.5 ml/well of the above mixture containing collagen was pipetted into each well. The microplate was placed in a CO2 incubator for about 30 minutes to gelatinize it. 1.5 ml of a medium (MEM | 2% FBS) containing a sample was added, and continued to incubate while changing the medium every second day.
(§3) The variation of cells were observed by a microscope by taking a photograph, and lumen formation was evaluated by counting the number of branches of cells forming lumen.
The inhibition test against lumen formation was carried out in the same manner as Example 15, except that α-tocopherol was substituted for DL-α-tocotrienol.

BAEC [4] = assay: Inhibition against lumen formation induced by FGF; format: cell-based, bovine; set-up: key to Lumen Formation: ↑: Accelerated; /: Tendency to increase; No change; ↓: Inhibited; ↓↓: Strongly inhibited
Protocol: as §2, §3
The test was carried out similar to Examples 12-14, wherein FGF was added together with each tocotrienol. In the case of Control group E, no sample was added. […]

BAEC [5] = assay: Measurement of LDH activity, rate of cell damage of BAEC
Protocol: A rate of cell damage of BAEC by the sample was evaluated by measuring free LDH activity in a culture medium using a kit for LDH-cytotoxicity testing (Wako Co.)
(§4) BAEC with confluent growth were treated with trypsin, and suspended in MEM | 10% FBS in a concentration of 5×10^4 cell/ml. The cell suspension was placed in each well of a 96 well-microplate in an amount of 100 μl/well, and incubated overnight in a CO2 incubator. The culture solution in each well was removed, and changed to 100 μl culture medium (MEM+2% FBS) containing a sample to continue incubation. In the experiment, MEM+2% FBS was employed as a negative control (NC), and 2% Tween 20 dissolved in MEM | 2% FBS was employed as a positive control (PC). After 48 hours, 50 μl culture medium in each well was transferred to a new well, and the color producing reagent in the kit was added to the new wells in an amount of 50 μl/well. After incubating for 45 minutes at room temperature, reaction was terminated by adding 100 μl of 0.5 N HCL/well, and absorbance at 595 nm was measured. The rate of cell damage was determined by the following formula:
(§5) Rate of Cell Damage=(S−N)/(P−N)×100(%)
N: Absorbance of negative control
P: Absorbance of positive control
In Control group G, no sample was added.
The assay was carried out in the same manner as Example 30, except that the tocotrienol was replaced by α-tocopherol.

BAEC [6] = assay: Cell damage action (LDH) with FGF added; details: FGF 20 ng/ml + sample 10 μM
Protocol: as §4, §5
Cell damage action of DL-α-tocotrienol, DL-β-tocotrienol, DL-γ-tocotrienol, DL-δ-tocotrienol and the tocotrienol mixture was examined against FGF. […] In Control group H, no sample was added.
The assay was carried out in the same manner as Example 36, except that the tocotrienol was replaced by α-tocopherol.

BAEC [7] = assay: Cell multiplication of BAEC, survival rate of cells using WST-1; format: cell-based, bovine; details: for Survival Rate of Cells (% of control): 24 hours, WST-1
Protocol: Influence of tocotrienols on cell multiplication of BAEC was examined in various concentrations. The cell multiplication was evaluated by determining the survival rate of cells using WST-1, which makes it possible to conduct high sensitivity measurement, instead of conventional MTT.
As a blank, the culture medium alone was incubated without adding cells. […] The microplate was taken out after 24 hours from placing the culture medium containing a sample. 10 μl/well of WST-1 solution was added to each well, and incubated in a CO2 incubator. After 3 hours, absorbance at 450 nm and 655 nm (dual) of each well was measured by a microplate reader.
The samples employed were DL-α-tocotrienol, DL-γ-tocotrienol and DL-δ-tocotrienol. In the case of Control group I, no sample was added.
The survival rate of cells was determined by the following formula:
Survival Rate of Cells=(S−B)/(C−B)×100(%)
The results of Table 10 were made in a graph shown in FIG. 1, and median growth inhibition concentration (IC50) was determined from the graph. In the figure, the numbers on the ordinate indicate the survival rate of cells (% of control), and the numbers on the abscissa indicate concentration (μM). ● is DL-α-tocotrienol, ▪ is DL-β-tocotrienol, Δ is DL-γ-tocotrienol, and X is DL-δ-tocotrienol, respectively.

[8] = summary, FGF (20 ng/ml) + sample (10 μM)

CC(C)=CCC/C(C)=C/CC/C(C)=C/CC[C@]1(C)CCc2cc(O)c(C)c(C)c2O1 (racemic) [DL-γ-Tocotrienol, γ-tocotrienol]
inhibitory action against cell multiplication (BAEC [1]; 10 μM, Table 1): remarkable inhibitory action
Absorbance (BAEC [1]; 0 hr): 0.101 ± 0.002
Absorbance (BAEC [1]; 24 hrs): 0.020 ± 0.001
Absorbance (BAEC [1]; 48 hrs): 0.010 ± 0.002
Absorbance (BAEC [1]; 96 hrs): 0.003 ± 0.000
Absorbance (BAEC [2]; 0 hr): 0.042 ± 0.002
Absorbance (BAEC [2]; 24 hrs): 0.085 ± 0.004
Absorbance (BAEC [2]; 48 hrs): 0.232 ± 0.016
Absorbance (BAEC [2]; 96 hrs): 0.431 ± 0.011
Cell Multiplication (BAEC [2]; [8]): ↑
inhibition of lumen formation (BAEC [3]; 10 μM): inhibited lumen formation sufficiently
Number of Cells Forming Lumen/cm^2 (BAEC [3]; Table 4, 10 μM): 4.75 ± 0.48 /cm^2
inhibition of lumen formation induced by FGF (BAEC [4]; 10 μM + FGF 20 ng/ml): inhibited the lumen formation induced by FGF; also recorded: exhibit inhibitory action against lumen formation
Number of Cells Forming Lumen/cm^2 (BAEC [4]; sample 10 μM + FGF 20 ng/ml): 12.50 ± 3.20 /cm^2
Lumen Formation (BAEC [4]; [8]): ↓
activity to damage cells (BAEC [5]; 10 μM, Table 7): have an activity to damage cells
Rate of Cell Damage (% of control) (BAEC [5]; Table 7, 10 μM, 48 hours): 265.33 ± 3.18 % of control
Rate of Cell Damage (% of control) (BAEC [6]): 101.15 ± 2.38 % of control
Survival Rate of Cells (% of control) (BAEC [7]; 10 μM): 102.3 ± 10.8 % of control
Survival Rate of Cells (% of control) (BAEC [7]; 12 μM): 15.5 ± 4.5 % of control
Survival Rate of Cells (% of control) (BAEC [7]; 14 μM): 3.4 ± 3.1 % of control
Survival Rate of Cells (% of control) (BAEC [7]; 16 μM): 0.0 ± 0.1 % of control
Survival Rate of Cells (% of control) (BAEC [7]; 18 μM): 2.0 ± 2.8 % of control
IC50 (BAEC [7]; determined from the graph of FIG. 1 (abscissa μM), read-out: median growth inhibition concentration (IC50)): 11 µM
